From patent publication US5506239A, “Carbostyril derivative and platelets aggregation inhibitory agent” (Otsuka Pharmaceutical Co., Ltd., priority 1991, dated 1996)

Legend:
[1] = target: T1, cyclic AMP phosphodiesterase (Homo sapiens, UniProt Q14432); experiment: Cyclic AMP phosphodiesterase inhibitory activity, enzyme from human platelets (Pharmacological Test IV); type: biochemical, man; conditions: 0.4 μM cyclic AMP substrate, 30° C., 20 minutes, human platelet enzyme; read-out: IC50 (50% phosphodiesterase inhibition concentration)
T1 construct: the resulting supernatant liquid was used as a crude enzyme solution; from tissue; host or cells: human platelets (from platelet-rich plasma)
T1 sequence (Q14432 whole entry): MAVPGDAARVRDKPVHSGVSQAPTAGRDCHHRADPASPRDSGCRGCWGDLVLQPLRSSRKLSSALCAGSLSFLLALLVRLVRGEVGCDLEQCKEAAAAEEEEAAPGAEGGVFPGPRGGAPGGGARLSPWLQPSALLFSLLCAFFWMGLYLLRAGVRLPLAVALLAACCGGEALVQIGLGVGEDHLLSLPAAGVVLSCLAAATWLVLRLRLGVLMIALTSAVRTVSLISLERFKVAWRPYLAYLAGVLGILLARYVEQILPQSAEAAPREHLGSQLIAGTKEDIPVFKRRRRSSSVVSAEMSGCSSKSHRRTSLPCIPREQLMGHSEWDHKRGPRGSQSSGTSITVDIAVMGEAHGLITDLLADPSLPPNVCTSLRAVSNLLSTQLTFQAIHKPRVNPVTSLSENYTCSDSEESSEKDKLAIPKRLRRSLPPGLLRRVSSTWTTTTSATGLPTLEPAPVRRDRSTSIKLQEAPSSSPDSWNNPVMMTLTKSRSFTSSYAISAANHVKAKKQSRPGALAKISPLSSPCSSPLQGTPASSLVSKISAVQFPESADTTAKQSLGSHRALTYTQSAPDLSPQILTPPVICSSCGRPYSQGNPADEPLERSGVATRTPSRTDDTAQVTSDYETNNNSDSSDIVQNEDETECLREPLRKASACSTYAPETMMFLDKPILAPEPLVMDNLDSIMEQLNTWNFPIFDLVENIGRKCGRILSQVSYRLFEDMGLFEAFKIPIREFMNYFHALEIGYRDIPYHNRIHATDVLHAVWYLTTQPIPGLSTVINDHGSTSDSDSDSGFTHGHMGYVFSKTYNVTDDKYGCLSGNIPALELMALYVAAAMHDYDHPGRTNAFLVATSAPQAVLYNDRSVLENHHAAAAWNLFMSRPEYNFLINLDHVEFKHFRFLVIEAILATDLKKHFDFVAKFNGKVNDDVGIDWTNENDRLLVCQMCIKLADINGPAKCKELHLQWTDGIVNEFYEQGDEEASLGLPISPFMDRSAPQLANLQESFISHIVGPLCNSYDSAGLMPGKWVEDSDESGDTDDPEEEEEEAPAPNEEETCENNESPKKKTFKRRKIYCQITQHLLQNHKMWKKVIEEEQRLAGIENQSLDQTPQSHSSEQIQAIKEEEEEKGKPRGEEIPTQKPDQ

platelets [2] = experiment: Inhibition of collagen-induced platelets adhesion, washed platelets (Pharmacological Test III); type: cell-based, man; conditions: Platelet, 50 μg/ml collagen, human washed platelets, read-out: Inhibition (%) of collagen-induced platelets adherence
Method: A blood was collected from a healthy person with normal platelets function by addition of 0.1% disodium ethylenediaminetetraacetate (EDTA.4Na) and immediately subjected to separation of a platelet rich plasma (PRP). The PRP was washed twice with a Tyrode's buffer solution (50mM TRIS, 0.1% EDTA, Ca (-), Mg (-), 0.14% BSA added, pH=7.4), and suspended in the buffer solution so that the number of platelets in the resulting suspension became 300, 000/ml, to obtain a platelets suspension (EDTA-WP). 4 mg of Type I manufactured by Sigma Co., derived from a bovine skin was dissolved in 0.25 ml of acetic acid (83.5 mM); 8 ml of distilled water was added thereto; an ultrasonic wave was applied to the mixture at 4° C. for 2 minutes; 5 ml of the supernatant liquid was separated as a collagen solution. Each test compound was dissolved in dimethylformamide (DMF) so as to give a concentration of at least […] when possible, to prepare a test compound solution. The change in turbidity of platelets suspension was recorded as a change in transmitted light emitted from a glass cell containing the suspension, using a platelets aggregation tracer manufactured by Nikoh Bioscience K.K., generally used in the test of platelets aggregation function, whereby the adherence of platelets was measured. Incidentally, in recoridng the change in transmitted light, the sensitivity of the recorder was 5 times as high as that used generally. 200 μl of the EDTA-WP was placed in a glass cell exclusively used for the above platelets aggregation tester. Further, 1 μl of the test compound solution was added. The mixture was incubated at room temperature for 5 minutes. Then, the cell was set in the platelets aggregation tracer and was allowed to stand for 1 minute until the temperature became 37° C. Thereafter, about 20 μl (50 μg/ml) of the collagen solution was added, and the adherence of platelets were measured.
The inhibitions (%) of collagen-induced platelets adhesion by each test compound at various concentrations were calculated using the following formula.
Inhibition (%)=[1-(platelets adherence when test compound added)/
(platelets adherence when no test compound added)]×100

mongrel dogs = conditions: dog, in vivo, 300 mg/kg
Method: The heart rate-increasing activity and blood pressure hypotensive activity of each test compound were measured by the following method, using mongrel dogs each weighing 10-20 kg. That is, said dogs were anesthesized by intravenous injection of pentobarbital sodium, then fixed at the back, and tested under artificial respiration. The blood pressures of the dogs were measured by a blood pressure measuring transducer (P23×L manufactured by Gould Statham Instruments, Inc.) via cannula inserted into the femoral artery. The heart rates of the dogs were measured using the pulse wave of the blood pressure of each dog, via a tachometer. The signals of these testng apparatuses were recorded on a thermal pen-type recorder (Recti-Horize 8K manufactured by Nippon Denki-San-ei Sha).
Some of the compounds obtained in the above Examples were used as test compounds. […] Then, the heart rate of each dog was measured according to the above method and a maximum change in heart rate was calculated.

platelets [3] = experiment: Platelets aggregation inhibitory activity (method of Born et al.), ADP-induced, human PRP (Pharmacological Test I); type: cell-based, man; conditions: Homo sapiens, Platelet, 7.5 μM ADP, 37° C., read-out: IC50 ADP (50% platelets aggregation inhibition)
Method: (§1) The platelets aggregation inhibitory activity of each test compound was measured by the method of Born et al. [J. Physiol., London, 162, 67 (1962)], using Platelets Aggregation Tracer manufactured by Nikoh Bioscience Co., Ltd.
(§2) 9 volumes of a blood collected from person was mixed with 1 volume of a 3.8% aqueous sodium citrate solution. Part of the mixture was subjected to centrifugation at 1,100 rpm for 10 minutes to obtain a platelet rich plasma (PRP). The remainder of the mixture was also subjected to centrifugation at 3,000 rpm for 10 minutes to obtain a platelet poor plasma (PPP).
(§3) The number of platelets in the PRP was measured using Coulter Counter manufactured by Coulter Electronics Inc. Then, the PRP was diluted with the PPP so that the number of platelets in the dilution became 300,000, whereby a PRP solution was prepared.
(§4) 200 μl of this PRP solution and 2 ml of a solution containing a test compound at a given concentration were placed in an aggregation measurement cell and heated at 37° C. for 1 minute. Thereto was added 20 μl of adenosine diphosphate (ADP manufactured by Sigma Co.) or a collagen suspension (Collagen Reagent manufactured by Horm, Hormon-Chemie, Gmbh) to induce aggregation of platelets. The resulting mixture in the cell was measured for change of transmittance, after which a platelets aggregation curve was prepared. Incidentaly, the concentration of ADP or collagen was selected so that the final Concentration became 7.5 μM or 20 μg/ml.
(§5) Using the platelets aggregation curve, there was calculated a maximum aggregation rate (MAR) of platelets using the followoing formula: […]
(§6) wherein a represents a transmittance of the PRP obtained in the same manner; c represents a transmittance of the PPP obtained in the same manner; and b represents a transmittance at the maximum change, of the PRP solution containng the test compound and the aggregation inducer.
(§7) A MAR was also calculated as above, for the control containing no test compound.
(§8) Using the above two MARs, there were calculated platelets aggregation inhibitions (%) of each test compound at various concentrations using the following formula.
(§9) Inhibition=[1-(MAR of PRP solution containing test compound)/(MAR of PRP
(§10) solution containing no test compound)]×100
(§11) Using the above obtained platelets aggregation inhibitions (%) of each test compound at various concentrations, there was calculated a concentration (IC50) of each test compound for 50% platelets aggregation inhibition.

platelets [4] = experiment: Platelets aggregation inhibitory activity (method of Born et al.), collagen-induced, human PRP (Pharmacological Test I); type: cell-based, man; conditions: Homo sapiens, Platelet, 20 μg/ml collagen, 37° C., read-out: IC50 Collagen (50% platelets aggregation inhibition)
Method: as §1, §2, §3, §4, §5, §6, §7, §8, §9, §10, §11

| SMILES | IC50 [1] [nM] | inhibition at 10 µM (platelets [2]; dose 10 μM) [%] | Maximum change in heart rate (mongrel dogs) [beats/minute] | IC50 (platelets [3]) [nM] | inhibition at 3 µM (platelets [2]; dose 3 μM) [%] | IC50 (platelets [4]) [nM] |
| --- | --- | --- | --- | --- | --- | --- |
| O=c1ccc2cc(OCCCCN(CCN3CCC(O)CC3)Cc3ccccc3)ccc2[nH]1 [Example 28] | 480 | 48 | 0 |  |  |  |
| O=c1ccc2cc(OCCCS(=O)(=O)N(CCN3CCC(O)CC3)C3CCCCCCC3)ccc2[nH]1 [Example 85] | < 100 |  | 13 | 2100 | 50 | 570 |
